According to paper PMC6317804, “The integration of pharmacophore-based 3D QSAR modeling and virtual screening in safety profiling: A case study to identify antagonistic activities against adenosine receptor, A2A, using 1,897 known drugs” (PLoS ONE, 2019):

Assays:
[1] = molecular target: T1, adenosine receptor 2A (A2A) (Homo sapiens, UniProt P29274); experiment: Functional antagonist assay monitoring cAMP (CEREP); format: cell-based;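 for IC50, cAMP, M: eight-point concentration-response from 0 to 10 µM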
T1 construct: CEREP (Poitiers, France), paid service
T1 sequence (P29274 whole entry): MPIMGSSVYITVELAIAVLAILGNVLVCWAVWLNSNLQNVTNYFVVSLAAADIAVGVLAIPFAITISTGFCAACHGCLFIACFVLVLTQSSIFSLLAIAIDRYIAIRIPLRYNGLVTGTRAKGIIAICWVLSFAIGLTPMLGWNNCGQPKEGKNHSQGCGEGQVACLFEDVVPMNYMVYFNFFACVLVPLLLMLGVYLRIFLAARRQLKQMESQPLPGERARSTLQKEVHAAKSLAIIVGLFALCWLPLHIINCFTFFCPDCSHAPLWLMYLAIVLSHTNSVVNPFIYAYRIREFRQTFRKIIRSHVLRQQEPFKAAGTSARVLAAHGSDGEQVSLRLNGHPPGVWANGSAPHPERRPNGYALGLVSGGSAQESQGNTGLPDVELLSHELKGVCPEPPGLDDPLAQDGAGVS
Protocol: (§1) Competition binding assay using radioactive ligands and functional assay monitoring cAMP were carried out as a paid service provided by CEREP (Poitiers, France). The functional assays monitoring Ca^2+ flux were carried out as a paid service provided by DiscoveRx (Carlsbad, CA).

[2] = molecular target: T1, adenosine receptor 2A (A2A); experiment: Competition binding assay using radioactive ligands (CEREP); parameters: inhibition: dose or concentration left out as unconfirmed; conditions: for inhibition at 10 µM: fixed compound concentration of 10 μM; for inhibition: read-out: %inhibition, binding;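 for all read-outs here: compounds screened at a single fixed 10 µM concentration for displacement of a radioligand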
Protocol: as §1

[3] = molecular target: T1, adenosine receptor 2A (A2A); experiment: Functional assay monitoring Ca2+ flux (DiscoveRx); format: cell-based; parameters: inhibition: dose or concentration left out as unconfirmed; conditions: for inhibition: read-out: IC50, Ca2+, M
Protocol: as §1

[4] = concentration-response up to 10 μM, read-out: IC50, cAMP
[5] = concentration-response up to 10 μM
[6] = concentration-response up to 10 μM, read-out: IC50, Ca2+

Compound	inhibition at up to 10 µM [1, 4] [%]	inhibition at 10 µM [2] [%]	inhibition [3] [%]	also measured
NC[C@H](O)c1ccc(O)c(O)c1 [Norepinephrine]	< 50	< 50	< 50	–
COc1ccc(OC)c(C(O)CNC(=O)CN)c1 (stereo not drawn) [Midodrine]	< 50	< 50	< 50	–
Cc1onc(-c2c(F)cccc2Cl)c1C(=O)N[C@@H]1C(=O)N2[C@@H]1SC(C)(C)[C@@H]2C(=O)O [Flucloxacillin]	< 50	< 50	< 50	–
COc1cccc2c1C(=O)c1c(O)c3c(c(O)c1C2=O)C[C@@](O)(C(=O)CO)C[C@@H]3O[C@H]1C[C@H](N)[C@H](O)[C@H](C)O1 [Doxorubicin]	< 50	< 50	–	IC50 [3, 5]: 2.5 µM
NCC1(CC(=O)O)CCCCC1 [Gabapentin]	–	–	< 50	inhibition ([1]; read-out: IC50, cAMP, M): < 50%; inhibition [2]: < 50%
N=C(N)NC(=O)c1nc(Cl)c(N)nc1N [Amiloride]	–	–	< 50	inhibition ([1]; read-out: IC50, cAMP, M): < 50%; inhibition [2]: 53%
C[S+](CC[C@H](N)C(=O)[O-])C[C@H]1O[C@@H](n2cnc3c(N)ncnc32)[C@H](O)[C@@H]1O (stereo partly drawn) [S-Adenosyl-methionine]	< 50	74	–	inhibition at up to 10 µM [3, 6]: < 50%
Nc1nc(N)c2nc(-c3ccccc3)c(N)nc2n1 [Triamterene]	< 50	< 50	< 50	–
O=C(Nc1cccc2c(=O)cc(-c3nnn[nH]3)oc12)c1ccc(OCCCCc2ccccc2)cc1 [Pranlukast]	< 50	< 50	–	IC50 [3, 5]: 0.83 µM
CCCCCOC(=O)Nc1nc(=O)n([C@@H]2O[C@H](C)[C@@H](O)[C@H]2O)cc1F [Capecitabine]	< 50	< 50	< 50	–
CC1=C(C(=O)O)N2C(=O)[C@@H](NC(=O)[C@H](N)c3ccccc3)[C@H]2SC1 [Cephalexin]	< 50	< 50	< 50	–
Nc1nnc(-c2cccc(Cl)c2Cl)c(N)n1 [Lamotrigine]	< 50	< 50	< 50	–
O=C(Oc1ccccc1C(=O)O)c1ccccc1O [Salsalate]	< 50	< 50	< 50	–
OC(CNCC(O)C1CCc2cc(F)ccc2O1)C1CCc2cc(F)ccc2O1 (stereo not drawn) [Nebivolol]	< 50	< 50	< 50	–
Cc1ncc(CO)c(C=O)c1O [Pyridoxal]	< 50	< 50	< 50	–
Cc1[nH]c(=O)c(C#N)cc1-c1ccncc1 [Milrinone]	< 50	< 50	< 50	–
Cc1ccc2c(c1)c1c3n2CCNC3CCC1 (stereo not drawn) [Pirlindole]	< 50	< 50	–	inhibition at up to 10 µM [3, 6]: < 50%
CCN1CCCC1CNC(=O)c1cc(S(N)(=O)=O)ccc1OC (stereo not drawn) [Sulpiride]	< 50	< 50	< 50	–
CCCSc1nc(N[C@@H]2C[C@H]2c2ccc(F)c(F)c2)c2nnn([C@@H]3C[C@H](OCCO)[C@@H](O)[C@H]3O)c2n1 [Ticagrelor]	< 50	< 50	–	inhibition at up to 10 µM [3, 6]: < 50%
COc1ccccc1Oc1c(NS(=O)(=O)c2ccc(C(C)(C)C)cc2)nc(-c2ncccn2)nc1OCCO [Bosentan]	–	< 50	–	inhibition at 10 µM [1, 4]: < 50%; inhibition at 10 µM [3, 6]: < 50%
CC1=C(C(=O)O)N2C(=O)[C@@H](NC(=O)[C@H](N)c3ccc(O)cc3)[C@H]2SC1 [Cefadroxil]	< 50	< 50	–	inhibition at up to 10 µM [3, 6]: < 50%

Compound	inhibition at up to 10 µM [1, 4] [%]	inhibition at 10 µM [2] [%]	inhibition [3] [%]	also measured
NC(N)=Nc1nc(CSCCC(N)=NS(N)(=O)=O)cs1 [Famotidine]	–	< 50	< 50	inhibition [1, 4]: < 50%
CN(C)CCC(c1ccccc1)c1ccccn1 (stereo not drawn) [Pheniramine]	< 50	< 50	–	inhibition at up to 10 µM [3, 6]: < 50%
CN(CCOc1ccc(CC2SC(=O)NC2=O)cc1)c1ccccn1 (stereo not drawn) [Rosiglitazone]	< 50	< 50	< 50	–
NC(=O)OCC(COC(N)=O)c1ccccc1 [Felbamate]	< 50	< 50	< 50	–
COCCc1ccc(OCC(O)CNC(C)C)cc1 (stereo not drawn) [Metoprolol]	< 50	< 50	< 50	–
C=CCN1C[C@H](C(=O)N(CCCN(C)C)C(=O)NCC)C[C@@H]2c3cccc4[nH]cc(c34)C[C@H]21 [Cabergoline]	< 50	< 50	< 50	–
CC(C)[C@H](N)C(=O)OCCOCn1cnc2c(=O)[nH]c(N)nc21 [Valaciclovir]	< 50	< 50	< 50	–
CC(C)[C@H](N)C(=O)OCC(CO)OCn1cnc2c(=O)nc(N)[nH]c21 (stereo partly drawn) [Valganciclovir]	< 50	< 50	< 50	–
CC(C)[N+]1(C)[C@@H]2CC[C@H]1C[C@@H](OC(=O)C(CO)c1ccccc1)C2 (stereo partly drawn) [Ipratropium bromide]	–	< 50	–	IC50, cAMP, M [1, 5]: N.E. (N.E., no effects. Results showing an inhibition or stimulation lower than 50% are considered to represent insignificant effects of the test compounds.); IC50, Ca2+, M [3, 5]: N.E. (N.E., no effects. Results showing an inhibition or stimulation lower than 50% are considered to represent insignificant effects of the test compounds.)
Cc1cc(C#N)cc(C)c1Oc1nc(Nc2ccc(C#N)cc2)nc(N)c1Br [Etravirine]	< 50	< 50	–	inhibition at up to 10 µM [3, 6]: < 50%
Cc1cc2c(OCC(CNC(C)(C)C)OC(=O)c3ccccc3)cccc2[nH]1 (stereo not drawn) [Bopindolol]	< 50	< 50	< 50	–
Cc1c(O)cccc1C(=O)N[C@@H](CSc1ccccc1)[C@H](O)CN1C[C@H]2CCCC[C@H]2C[C@H]1C(=O)NC(C)(C)C [Nelfinavir]	< 50	< 50	–	inhibition at up to 10 µM [3, 6]: < 50%
COc1ccc2c(c1)C(=O)N(CCc1ccc(S(=O)(=O)NC(=O)NC3CCCCC3)cc1)C(=O)C2(C)C [Gliquidone]	< 50	< 50	< 50	–
NC(=O)c1ncn([C@@H]2O[C@H](CO)[C@@H](O)[C@H]2O)n1 [Ribavirin]	< 50	< 50	< 50	–
C=CC1=C(C(=O)O)N2C(=O)[C@@H](NC(=O)/C(=N\O)c3csc(N)n3)[C@H]2SC1 [Cefdinir]	< 50	< 50	< 50	–
CCC1=C(C)CN(C(=O)NCCc2ccc(S(=O)(=O)NC(=O)N[C@H]3CC[C@H](C)CC3)cc2)C1=O [Glimepiride]	< 50	< 50	–	inhibition at up to 10 µM [3, 6]: < 50%
O=C1CCCC(=O)C1C(=O)c1ccc(C(F)(F)F)cc1[N+](=O)[O-] [Nitisinone]	< 50	< 50	–	inhibition at up to 10 µM [3, 6]: < 50%
COc1ccc([C@@H]2Sc3ccccc3N(CCN(C)C)C(=O)[C@@H]2OC(C)=O)cc1 [Diltiazem]	< 50	< 50	< 50	–
CC(C)OC(=O)[C@H](C)N[P@](=O)(OC[C@H]1O[C@@H](n2ccc(=O)[nH]c2=O)[C@](C)(F)[C@@H]1O)Oc1ccccc1 [Sofosbuvir]	–	< 50	< 50	inhibition ([1]; read-out: IC50, cAMP, M): < 50%
CC(C)C[C@H](NC(=O)[C@H](Cc1ccccc1)NC(=O)c1cnccn1)B(O)O [Bortezomib]	< 50	< 50	< 50	–
